Test results: US12285407B2, “Bis-indolylmethane derivatives and uses thereof” (The University of The West Indies, priority 2018, dated 2025)

Columns and labels:
Pseudomonas aeruginosa = assay: Adjuvant broth microdilution (antibiotic MIC with SP-BIM at 50 μg/mL); assay type: cell-based; settings: antibiotic alone
Enterobacter cloacae = assay: as above; assay type: cell-based; settings: antibiotic alone
Enterococcus faecalis = assay: as above; assay type: cell-based; settings: antibiotic alone
[1] = test system: clinical antibiotic resistant isolates of MRSA; assay: Checkerboard resistance breaking by SP-BIM 13; assay type: cell-based, Staphylococcus aureus; settings: for FIC compound / Rescue concentration of SP-BIM 13: SP-BIM 13 with the labelled antibiotic; for Interpretation / Σ FIC: antibiotic + SP-BIM 13; for MIC of antibiotic only: antibiotic alone; for FIC antibiotic: combination with SP-BIM 13; for MIC of antibiotic in combination: with SP-BIM 13 at rescue concentration
[2] = test system: clinical antibiotic resistant isolates of Enterococcus faecium; assay: Checkerboard resistance breaking by SP-BIM 13; assay type: cell-based; settings: for FIC compound / Rescue concentration of SP-BIM 13: SP-BIM 13 with the labelled antibiotic; for Interpretation / Σ FIC: antibiotic + SP-BIM 13; for MIC of antibiotic only: antibiotic alone; for FIC antibiotic: combination with SP-BIM 13; for MIC of antibiotic in combination: with SP-BIM 13 at rescue concentration

Structure (SMILES): C[C@H]1c2cccc(O)c2C(=O)C2=C(O)[C@]3(O)C(=O)C(C(N)=O)=C(O)[C@@H](N(C)C)[C@@H]3[C@@H](O)[C@@H]21 [Doxycycline, doxycycline]
- MIC of antibiotic, No Compound (Pseudomonas aeruginosa): 32 µg/mL
- MIC of antibiotic, No Compound (Enterobacter cloacae): 4 µg/mL
- MIC of antibiotic, No Compound (Enterococcus faecalis): 0.5 µg/mL
- FIC compound ([1]; MRSA strain 1594): 0.3
- Rescue concentration of SP-BIM 13 ([1]; MRSA strain 1594): 63 µg/mL
- Interpretation ([1]; MRSA strain 1594): Synergy (Synergy: FICI≤0.5)
- Σ FIC ([1]; MRSA strain 1594): <0.43
- MIC of antibiotic only ([1]; MRSA strain 1594): 8 µg/mL
- FIC antibiotic ([1]; MRSA strain 1594): 0.125
- MIC of antibiotic in combination ([1]; MRSA strain 1594): 1 µg/mL
- FIC compound ([1]; MRSA strain 5872): 0.064
- Rescue concentration of SP-BIM 13 ([1]; MRSA strain 5872): 16 µg/mL
- Interpretation ([1]; MRSA strain 5872): Synergy (Synergy: FICI≤0.5)
- Σ FIC ([1]; MRSA strain 5872): <0.19
- MIC of antibiotic only ([1]; MRSA strain 5872): 32 µg/mL
- FIC antibiotic ([1]; MRSA strain 5872): 0.125
- MIC of antibiotic in combination ([1]; MRSA strain 5872): 4 µg/mL
- FIC compound ([1]; MRSA strain 7153): 0.128
- Rescue concentration of SP-BIM 13 ([1]; MRSA strain 7153): 32 µg/mL
- Interpretation ([1]; MRSA strain 7153): Synergy (Synergy: FICI≤0.5)
- Σ FIC ([1]; MRSA strain 7153): <0.25
- MIC of antibiotic only ([1]; MRSA strain 7153): 8 µg/mL
- FIC antibiotic ([1]; MRSA strain 7153): 0.125
- MIC of antibiotic in combination ([1]; MRSA strain 7153): 1 µg/mL
- FIC compound ([1]; MRSA strain 7172): 0.128
- Rescue concentration of SP-BIM 13 ([1]; MRSA strain 7172): 32 µg/mL
- Interpretation ([1]; MRSA strain 7172): Synergy (Synergy: FICI≤0.5)
- Σ FIC ([1]; MRSA strain 7172): <0.38
- MIC of antibiotic only ([1]; MRSA strain 7172): 8 µg/mL
- FIC antibiotic ([1]; MRSA strain 7172): 0.250
- MIC of antibiotic in combination ([1]; MRSA strain 7172): 2 µg/mL
- FIC compound ([1]; MRSA strain 7698): 0.128
- Rescue concentration of SP-BIM 13 ([1]; MRSA strain 7698): 32 µg/mL
- Interpretation ([1]; MRSA strain 7698): Synergy (Synergy: FICI≤0.5)
- Σ FIC ([1]; MRSA strain 7698): <0.19
- MIC of antibiotic only ([1]; MRSA strain 7698): 16 µg/mL
- FIC antibiotic ([1]; MRSA strain 7698): 0.063
- MIC of antibiotic in combination ([1]; MRSA strain 7698): 1 µg/mL
- FIC compound ([1]; MRSA strain 10132): 0.032
- Rescue concentration of SP-BIM 13 ([1]; MRSA strain 10132): 8 µg/mL
- Interpretation ([1]; MRSA strain 10132): Synergy (Synergy: FICI≤0.5)
- Σ FIC ([1]; MRSA strain 10132): <0.09
- MIC of antibiotic only ([1]; MRSA strain 10132): 8 µg/mL
- FIC antibiotic ([1]; MRSA strain 10132): 0.063
- MIC of antibiotic in combination ([1]; MRSA strain 10132): 0.5 µg/mL

Structure (SMILES): CC[C@H]1OC(=O)[C@H](C)[C@@H](O[C@H]2C[C@@](C)(OC)[C@@H](O)[C@H](C)O2)[C@H](C)[C@@H](O[C@@H]2O[C@H](C)C[C@H](N(C)C)[C@H]2O)[C@](C)(O)C[C@@H](C)C(=O)[C@H](C)[C@@H](O)[C@]1(C)O [Erythromycin, erythromycin]
- MIC of antibiotic, No Compound (Pseudomonas aeruginosa): >250 µg/mL
- MIC of antibiotic, No Compound (Enterobacter cloacae): >250 µg/mL
- MIC of antibiotic, No Compound (Enterococcus faecalis): 250 µg/mL
- Rescue concentration of SP-BIM 13 ([1]; MRSA strain 5872): 32 µg/mL
- Interpretation ([1]; MRSA strain 5872): Synergy (Synergy: FICI≤0.5)
- Σ FIC ([1]; MRSA strain 5872): <0.14
- MIC of antibiotic only ([1]; MRSA strain 5872): 250 µg/mL
- FIC antibiotic ([1]; MRSA strain 5872): 0.016
- MIC of antibiotic in combination ([1]; MRSA strain 5872): 4 µg/mL
- Rescue concentration of SP-BIM 13 ([1]; MRSA strain 10132): 32 µg/mL
- Interpretation ([1]; MRSA strain 10132): Synergy (Synergy: FICI≤0.5)
- MIC of antibiotic only ([1]; MRSA strain 10132): 250 µg/mL
- FIC antibiotic ([1]; MRSA strain 10132): 0.004
- MIC of antibiotic in combination ([1]; MRSA strain 10132): 1 µg/mL

Structure (SMILES): [H]/N=C(/N)N[C@H]1[C@H](O)[C@@H](O)[C@H](O[C@@H]2O[C@@H](C)[C@](O)(C=O)[C@H]2O[C@@H]2O[C@@H](CO)[C@H](O)[C@@H](O)[C@@H]2NC)[C@@H](N/C(N)=N\[H])[C@@H]1O [Streptomycin, streptomycin]
- FIC compound ([2]; E. faecium strain 21955): 0252
- Rescue concentration of SP-BIM 13 ([2]; E. faecium strain 21955): 63 µg/mL
- Interpretation ([2]; E. faecium strain 21955): Synergy (Synergy: FICI≤0.5)
- Σ FIC ([2]; E. faecium strain 21955): <0.26
- MIC of antibiotic only ([2]; E. faecium strain 21955): 125 µg/mL
- FIC antibiotic ([2]; E. faecium strain 21955): 0.004
- MIC of antibiotic in combination ([2]; E. faecium strain 21955): 0.5 µg/mL
- FIC compound ([2]; E. faecium strain 23668): 0.064
- Rescue concentration of SP-BIM 13 ([2]; E. faecium strain 23668): 16 µg/mL
- Interpretation ([2]; E. faecium strain 23668): Synergy (Synergy: FICI≤0.5)
- Σ FIC ([2]; E. faecium strain 23668): <0.08
- MIC of antibiotic only ([2]; E. faecium strain 23668): 63 µg/mL
- FIC antibiotic ([2]; E. faecium strain 23668): 0.016
- MIC of antibiotic in combination ([2]; E. faecium strain 23668): 1 µg/mL
- FIC compound ([2]; E. faecium strain RC63): 0.032
- Rescue concentration of SP-BIM 13 ([2]; E. faecium strain RC63): 8 µg/mL
- Interpretation ([2]; E. faecium strain RC63): Synergy (Synergy: FICI≤0.5)
- Σ FIC ([2]; E. faecium strain RC63): <0.04
- MIC of antibiotic only ([2]; E. faecium strain RC63): 125 µg/mL
- FIC antibiotic ([2]; E. faecium strain RC63): 0.008
- MIC of antibiotic in combination ([2]; E. faecium strain RC63): 1 µg/mL
- FIC compound ([1]; MRSA strain 1594): 0.004
- Rescue concentration of SP-BIM 13 ([1]; MRSA strain 1594): 16 µg/mL
- Interpretation ([1]; MRSA strain 1594): Synergy (Synergy: FICI≤0.5)
- Σ FIC ([1]; MRSA strain 1594): <0.13
- MIC of antibiotic only ([1]; MRSA strain 1594): 63 µg/mL
- FIC antibiotic ([1]; MRSA strain 1594): 0.127
- MIC of antibiotic in combination ([1]; MRSA strain 1594): 8 µg/mL
- FIC compound ([1]; MRSA strain 5872): 0.064
- Rescue concentration of SP-BIM 13 ([1]; MRSA strain 5872): 16 µg/mL
- Interpretation ([1]; MRSA strain 5872): Synergy (Synergy: FICI≤0.5)
- Σ FIC ([1]; MRSA strain 5872): <0.07
- MIC of antibiotic only ([1]; MRSA strain 5872): 125 µg/mL
- FIC antibiotic ([1]; MRSA strain 5872): 0.004
- MIC of antibiotic in combination ([1]; MRSA strain 5872): 0.5 µg/mL
- FIC compound ([1]; MRSA strain 7153): 0.064
- Rescue concentration of SP-BIM 13 ([1]; MRSA strain 7153): 16 µg/mL
- Interpretation ([1]; MRSA strain 7153): Synergy (Synergy: FICI≤0.5)
- Σ FIC ([1]; MRSA strain 7153): <0.08
- MIC of antibiotic only ([1]; MRSA strain 7153): 63 µg/mL
- FIC antibiotic ([1]; MRSA strain 7153): 0.016
- MIC of antibiotic in combination ([1]; MRSA strain 7153): 1 µg/mL
- FIC compound ([1]; MRSA strain 7698): 0.032
- Rescue concentration of SP-BIM 13 ([1]; MRSA strain 7698): 8 µg/mL
- Interpretation ([1]; MRSA strain 7698): Synergy (Synergy: FICI≤0.5)
- Σ FIC ([1]; MRSA strain 7698): <0.05
- MIC of antibiotic only ([1]; MRSA strain 7698): 125 µg/mL
- FIC antibiotic ([1]; MRSA strain 7698): 0.016
- MIC of antibiotic in combination ([1]; MRSA strain 7698): 2 µg/mL
- FIC compound ([1]; MRSA strain 10132): 0.064
- Rescue concentration of SP-BIM 13 ([1]; MRSA strain 10132): 16 µg/mL
- Interpretation ([1]; MRSA strain 10132): Synergy (Synergy: FICI≤0.5)
- Σ FIC ([1]; MRSA strain 10132): <0.07
- MIC of antibiotic only ([1]; MRSA strain 10132): 63 µg/mL
- FIC antibiotic ([1]; MRSA strain 10132): 0.008
- MIC of antibiotic in combination ([1]; MRSA strain 10132): 0.5 µg/mL
